This passage reports MIC results from US4493845A, “Antibiotic AM-3603” (Kitasato Kenkyusho, priority 1980, dated 1985).

In brackets after ≈: the same amount, converted by molar mass. Read-outs that look alike come from different tables or passages of the source.

Common to all, as to format: cell-based
For assay [1], the system named is Alternaria kikuchiana. Nature of the assay: Comparison of anti-phytopathogenic activity, MIC. The conditions noted are these: Glucosepotato agar, 2-3 days.
For assay [2], the system named is Pellicularia sasakii. Nature of the assay: Comparison of anti-phytopathogenic activity, MIC.
Assay [3] concerns Piricularia oryzae. Nature of the assay: microbe, parasite or virus in culture. The conditions noted are these: Glucosepotato agar, 2-3 days.
For assay [4], the system named is Sclerotinia cinerea. The experiment in a line: Comparison of anti-phytopathogenic activity, MIC. The conditions noted are these: Glucosepotato agar, 2-3 days.
The subject of assay [5] is Botrytis cinerea. The experiment in a line: Comparison of anti-phytopathogenic activity, MIC. The following applies: Glucosepotato agar, 2-3 days.
Where [6] appears, read: B, laboratory stock culture, Glucosepotato agar, 2-3 days.
Setting [7] is: A, isolate from infected plant, Glucosepotato agar, 2-3 days.

For the compound `CN(CCC(N)CC(=O)NC1C=CC(n2ccc(N)nc2=O)OC1C(=O)O)C(=N)N` (stereo not shown) [Blasticidin S], the MIC is 50 µg/mL (≈ 118 µM) in assay [1] (Alternaria kikuchiana, A, isolate from infected plant); 12.5 µg/mL (≈ 29.6 µM) in assay [1] (Alternaria kikuchiana, B, laboratory stock culture); greater than 100 µg/mL in assay [2]; greater than 100 µg/mL in assay [2] (setting [6]); greater than 100 µg/mL in assay [3] (A, isolate from infected plant); 25 µg/mL (≈ 59.2 µM) in assay [3] (B, laboratory stock culture). The MIC in assay [4] (Sclerotinia, A, isolate from infected plant) came to 50 µg/mL (≈ 118 µM); in assay [4] (Sclerotinia, B, laboratory stock culture) it was 25 µg/mL (≈ 59.2 µM); in assay [5] (Botrytis cinerea, A, isolate from infected plant) it was 50 µg/mL (≈ 118 µM); in assay [5] (Botrytis cinerea, B, laboratory stock culture), 100 µg/mL (≈ 237 µM).

Take Venturicidin: the MIC in assay [1] (B, laboratory stock culture) is greater than 25 µg/mL; in assay [2] (setting [7]), 1.56 µg/mL; in assay [2] (setting [6]), greater than 25 µg/mL; in assay [3] (A, isolate from infected plant), less than 0.03 µg/mL; in assay [3] (B, laboratory stock culture) it was less than 0.03 µg/mL; in assay [4] (A, isolate from infected plant) it was 0.78 µg/mL. Moreover, the MIC in assay [4] (B, laboratory stock culture) is 0.78 µg/mL; in assay [5] (B, laboratory stock culture), greater than 25 µg/mL.

With `C[C@@H](N)C(=O)N[C@H]1CO[C@H](O)[C@H](N)[C@H]1O` [Prumycin], the MIC in assay [1] (A, isolate from infected plant) is greater than 100 µg/mL; in assay [1] (B, laboratory stock culture), 50 µg/mL (≈ 228 µM); in assay [2] (setting [7]), greater than 100 µg/mL; in assay [2] (setting [6]) it was greater than 100 µg/mL; in assay [3] (A, isolate from infected plant) it was greater than 100 µg/mL; in assay [3] (B, laboratory stock culture), 100 µg/mL (≈ 456 µM). The MIC in assay [4] (A, isolate from infected plant) is 1.56 µg/mL (≈ 7.12 µM); in assay [4] (B, laboratory stock culture) it was 6.25 µg/mL (≈ 28.5 µM); in assay [5] (A, isolate from infected plant) it was 100 µg/mL (≈ 456 µM); in assay [5] (B, laboratory stock culture) it was 50 µg/mL (≈ 228 µM).
